# Marks after values point to notes of the source that are not given here.
# B1: RasGAP Fragment N2: HA-tagged human RasGAP amino acid 158-455 sequence, expressed from plasmid HA-N2.dn3 (protein, UniProt P20936 158-455, looked up, fragment)
# chain: SLDGPEYEEEEVAIPLTAPPTNQWYHGKLDRTIAEERLRQAGKSGSYLIRESDRRPGSFVLSFLSQMNVVNHFRIIAMCGDYYIGGRRFSSLSDLIGYYSHVSCLLKGEKLLYPVAPPEPVEDRRRVRAILPYTKVPDTDEISFLKGDMFIVHNELEDGWMWVTNLRTDEQGLIVEDLVEEVGREEDPHEGKIWFHGKISKQEAYNLLMTVGQVCSFLVRPSDNTPGDYSLYFRTNENIQRFKICPTPNNQFMMGGRYYNSIGDIIDHYRKEQIVEGYYLKEPVPMQDQEQVLNDTVD
# modifications: HA tag
# What was measured:
# U2OS cells [1] = test: Adhesion assay (trypsinization assay) with peptides; type: cell-based; conditions: for cell adherence (resistance to trypsin): U2OS cells, 8 hours (FIG. 4A)
# Description: (a) U2OS cells were cultured until confluency and treated during 0 h, 1 h, 3 h, 8 h and 14 h with 13 μM TAT, 13 μM TAT-RasGAP317-326 or without treatment. The cells were then trypsinized during 5 minutes (or not trypsinized), washed with PBS and stained with GIEMSA. Four pictures were taken per plate using a Zeiss Axioplan 2 microscope equipped with a 10× objective and the number of cells per surface area was determined. Representative images are shown. The graph represents the number of cells per mm^2 (mean±95% CI of 3 independent experiments). Scale bar=100 μm. (b) Trypsinization assay on cancerous cell lines (U2OS, HeLa, 4T1, HCT116, SAOS) and non-cancerous cell lines (HEK293T and HaCaT). Cells were treated and analyzed as in panel (a). Values for control and TAT treatments are shown literally as they were too low to be seen on the graphs. (c) Reversibility of the TAT-RasGAP317-326 induced adhesion. Confluent U2OS cells were treated during 24 h with 13 μM TAT, 13 μM TAT-RasGAP317-326 or not treated. The cells were then washed and incubated in culture medium without peptides for the indicated periods of time. Cells were analyzed as in panel (a).
# (§1) (a) RasGAP317-326 without cell-permeation sequences is not able to render cells resistant to trypsin. 300,000 U2OS cells were cultured overnight in 3.5 cm plates and then treated during 8 hours with the indicated peptides (the concentration of each peptide was 13 μM). The cells were then subjected to a trypsinization assay. (b) 2×10^6 HEK293T cells were cultured overnight in 10 cm plates and transfected with empty vector (pcDNA3) or vectors encoding HA-tagged versions of fragment N2 or the 317-326 sequence of RasGAP. One day later, the cells were subjected to a trypsinization test. Results in (a) and (b) correspond to the number of cells per mm2 (mean±95% CI of 3 independent experiments). Some values are shown literally as they were too low to be seen on the graphs.
# 5×10^5 cells were grown overnight and then incubated with peptides or transfected (see the figures for the specific conditions used). The treated cells were washed with phosphate buffered saline (PBS) and then incubated with trypsin-EDTA solution (Sigma; catalog no: T3924; […]) during 5 minutes. The plates were gently hand-rocked 2 and 4 minute after trypsin addition. Detached cells were removed with a PBS wash and the remaining attached cells were dried, incubated in ethanol during 10 minutes, dried again, and finally stained with GIEMSA (Invitrogen) for 45 minutes. Four and six phase contrast pictures were taken (Zeiss Axioplan, 10× objective) for 3.5 cm-plates and 10 cm-plates, respectively. The number of cells per mm2 was then determined.
# [2] = tested on: U2OS, HeLa, HCT116 and HaCaT; test: Wound-healing experiment; type: cell-based; conditions: 13 μM peptide, HCT116, HaCaT (FIG. 2)
# Description: Cells were cultured until confluency and a wound in the cell layer was done with a yellow tip. The cells were then left untreated or incubated 24 hours with 13 μM of TAT or TAT-RasGAP317-326 peptides. Pictures were taken just after wounding (0 hour) and at the indicated times. Results correspond to the width of the wound (mean±95% CI of 4 independent experiments). Asterisks denote significant differences between the control and the other conditions at a given time point (t-test after Bonferroni correction). Bar=100 μm. Cells were grown until confluency and a wound in the cell layer was done with a yellow tip. The cells were washed once with PBS to remove debris and then left untreated or incubated 24 hours and 48 hours with 13 μM of TAT or TAT-RasGAP317-326 peptides (in DMEM+10% FBS). Pictures were taken just after wounding (0 h) and at the indicated times. The wound widths were measured as described earlier (Bulat et al., 2009).
# U2OS cells [3] = test: Proliferation assay; type: cell-based; conditions: 13 μM (FIG. 3)
# Description: 30,000 U2OS cells were seeded in 3.5 cm-plates. The cell number in the plates were then determined 24 and 48 hours later as described in FIG. 1, panel (a). The graph represents the number of cells per mm2 (mean±95% CI of 3 independent experiments). No significant difference between the growth curves could be detected (repeated measures ANOVA). 30,000 U2OS cells were seeded in 3.5 cm plates and cultured overnight. The cells were either treated with 13 μM TAT, 13 μM TAT-RasGAP317-326 or left untreated. Pictures were taken after 0 h, 24 h and 72 hours and cells were counted. The number of cells was then adjusted per mm2.
# 4T1-luc2 cells = test: In vivo metastases model (orthotopic mammary fatpad 4T1-luc2 tumor); design: species or system nude mice
# Description: 100,000 4T1-luc2 cells were injected orthotopically into the mammary fatpad of nude mice. Four groups of eight nude mice were then treated with or without 0.16 mg TAT-RasGAP317-326 per kg of mouse on the first, third and fifth day of the week during 28 days. The tumor volumes were measured with a caliper at the indicated time points and were calculated according to the formula described in the “MATERIAL AND METHODS” section. A repeated measure ANOVA was performed and no differences were found between the two groups.
# Nude mice were injected into the mammary fatpads with 100,000 murine mammary cancer 4T1-luc2 cells that constitutively express the firefly luciferase. For the injection, the mouse skin was incised in the pelvic area to reach the fatpads, and the wounds were closed after injection with surgery hooks. The cells were injected in 100 μl Matrigel (BD Biosciences, 20% in PBS). Tumor volumes were quantified as follow: The tumor width and length were measured with a caliper and the tumor volume was calculated according to the formula tumor volume [mm3]=(12*L)*π/6, where 1 is the smallest measure between the width and the length (in mm), and L the longest (in mm) In order to quantify metastases, the mice were injected i.p. with 200 μl D-Luciferin Firefly (15 mg/ml in PBS) in PBS, Biosynth, No. L-8220) and luminescence was measured 10 minutes afterwards with an IVIS Lumina 2 apparatus (Xenogen). Metastases were assessed at the indicated time points in vivo and at the last day (28 days after tumor injection) ex vivo for the following organs: lung, liver and axillary and brachial lymph nodes. For the ex vivo measurements, the mice were injected with luciferin as described above, and sacrificed 10 minutes later to excise organs. The light emitted by the organs was measured in a Luciferin bath (150 μg/ml D-Luciferin Firefly in 2 ml PBS per organ). Luminescence is presented as the number of photons emitted per second (p/s).
# 28 days after cancer cells injection, the same mice than those in FIG. 5 were subjected to ex vivo metastases luminescence measurements. The lung, liver, axillary and brachial lymph node (LN) metastases were quantified by luminescence after luciferine i.p. injection. Organs emitting light were considered as bearing metastases. The asterisk denotes a significant difference against the control treatment (0 mg/kg TAT-RasGAP317-326) (p=0.0238 after an Fisher's Exact Test).
# U2OS cells [4] = test: Immuno-cytochemistry of actin and focal adhesions (phospho-FAK); type: cell-based; conditions: 13 μM over-night (FIG. 6)
# Description: FIG. 6: Actin and focal adhesion changes in TAT-RasGAP317-326-treated cells. 100,000 U2OS cells were cultured on coverslips for 24 hours and then treated with 13 μM TAT-RasGAP317-326, 13 μM TAT or left untreated (control) over-night. The cells were then fixed with 2% PFA, and peinieabilized with PBS Triton-X100 0.2%. The nuclei were stained with Hoechst 33342 and actin with Alexa Fluor 488 phalloidin. Focal adhesions were stained with an anti-phospho Tyr397 FAK. Representative images are shown.
# 100,000 U2OS cells were grown on coverslips overnight, and then treated as described in the figures. The cells were then fixed and the nuclei were stained in PBS containing 2% paraformaldehyde (weight/vol) (Acros Organics, catalog no: 30525-89-4) and 10 μg/ml Hoechst 33342 (Molecular Probe) for 15 minutes. The following steps were performed at room temperature in the absence of light. The cells were washed twice in PBS, permeabilized 10 minutes in PBS, 0.2% Triton X-100, washed twice in PBS, neutralized 15 minutes in DMEM, 10% FBS, and washed twice in PBS. The coverslips were then incubated 20 minutes in PBS 1.65 μM Alexa Fluor 488 phalloidin (Invitrogen, A12379). After a rapid wash in PBS, they were incubated with a polyclonal rabbit anti-phospho-FAK (tyrosine 397) primary antibody (1:50 dilution in DMEM, 10% FBS; Cell Signaling, catalog no: 3283) for 1 hour. After a rapid wash in PBS, the coverslips were incubated 1 hour with a donkey CyTM-anti-rabbit secondary antibody (1:500 dilution in DMEM, 10% FBS; Jackson ImmunoResearch, no. 711-165-152). The slides were finally washed twice in PBS and mounted in Vectashield mounting medium (Vector laboratories Inc.). Images were taken with a Zeiss Axioplan 2 imaging microscope.
# trypsin = molecular target: T1, trypsin (Sus scrofa, UniProt P00761); test: Trypsin pre-incubated with peptide, cell detachment; conditions: trypsin pre-incubated one hour with peptide; data not shown
# T1 construct: purchased Sigma T3924
# Excerpt: TAT-RasGAP317-326 could increase adherence and block migration by acting in the cellular environment or at the surface of cells. Alternatively, these effects could be induced only once the peptide has entered cells. The following evidence favors the second possibility.
# [5] = peptide by itself; Michod et al., 2004; 2009; cited from earlier work
# HEK293T cells = test: Adhesion assay (trypsinization test) after transfection; type: cell-based; conditions: HEK293T cells transfected with HA-tagged constructs, one day (FIG. 4B)
# Description: as §1
# 2×10^6 HEK293T cells were cultured overnight in 10 cm-culture plates and transfected with 18 μg of the plasmid of interest and 2 μg of pEGFP-C1 (a green fluorescent protein-encoding plasmid from Clontech) using the calcium-phosphate method (Jordan et al., 1996). Briefly, plasmids were diluted in 450 μl water and mixed with 50 μl CaCl2 2.5M during 30 minutes. […]
# 5×10^5 cells were grown overnight and then incubated with peptides or transfected (see the figures for the specific conditions used). […] The number of cells per mm2 was then determined.
# [6] = 0.160 mg/kg, 28 days after cell injection, ex vivo luminescence
# T1 sequence (P00761 9-231): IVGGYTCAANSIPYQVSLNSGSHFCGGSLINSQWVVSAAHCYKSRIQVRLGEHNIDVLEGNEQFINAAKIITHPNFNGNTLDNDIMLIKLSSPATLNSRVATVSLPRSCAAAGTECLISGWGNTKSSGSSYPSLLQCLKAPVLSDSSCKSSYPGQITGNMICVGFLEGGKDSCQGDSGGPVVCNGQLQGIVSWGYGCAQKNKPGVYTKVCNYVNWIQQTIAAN
molecule,measurement,setting,value
"GRKKRRQRRRGGWMWVTNLRTD [TAT-RasGAP317-326, RasGAP-derived peptide conjugated to HIV-TAT48-57 through two glycine residues]",ability to increase cell adherence when transcription or translation is blocked,"U2OS cells [1]; 1 μg/ml actinomycin D or 30 μg/ml cycloheximide, data not shown",None of the drugs affected the ability
same,cell adhesion,"U2OS cells [1]; 13 μM peptide, trypsinization 5 minutes, U2OS and other cell lines (FIG. 1)",induces cell adhesion
same,ability of the cells to fill wounds (cell migration),[2],blocked the ability of the cells to fill wounds
same,cell population growth,U2OS cells [3],does not modulate cell population growth
same,primary tumor growth,"4T1-luc2 cells; 0.16 mg per kg on first, third and fifth day of the week during 28 days, nude mice (FIG. 5)",does not affect primary tumor growth
same,mice with metastases in the indicated organs vs total number of mice: Liver,4T1-luc2 cells; [6],3/8
same,mice with metastases in the indicated organs vs total number of mice: Lung,4T1-luc2 cells; [6],2/8*
same,mice with metastases in the indicated organs vs total number of mice: LN,"4T1-luc2 cells; 0.160 mg/kg, 28 days after cell injection, ex vivo luminescence, axillary and brachial lymph nodes",3/8
same,formation of metastases in other organs,"4T1-luc2 cells; 28 days, liver, lymph nodes",apparently no effect
same,lung metastases,"4T1-luc2 cells; 28 days, p=0.024, Fisher's Exact Test",significant decrease in lung metastases
same,actin and focal adhesion localization,U2OS cells [4],major changes in actin and focal adhesion localization
same,cortical actin stress fibers,U2OS cells [4],strong increase
same,location of focal adhesions,U2OS cells [4],mainly found at the cell's periphery
same,ventral stress fibers,U2OS cells [4],almost completely disappeared
same,trypsin inhibitory effect (ability of trypsin to detach cells),trypsin,did not decrease the ability of trypsin to detach cells
same,cell survival,[5],"does not, by itself, affect cell survival"
"RRRRRRRRRGGWMWVTNLRTD [R9—RasGAP317-326, RasGAP317-326 conjugated to a 9 arginine peptide]",cell adherence (resistance to trypsin),U2OS cells [1]; 13 μM peptide,functions as a cell adherence promoting agent
"GRKKRRQRRR [TAT, cell-permeable carrier peptide used as control, reference compound]",actin and focal adhesion localization,U2OS cells [4],did not exhibit any difference compared to untreated cells
WMWVTNLRTD (listed as Homo sapiens) [RasGAP317-326],cell adherence (resistance to trypsin),U2OS cells [1]; 13 μM peptide,unable to increase cell adherence
B1,cell adherence after transfection,HEK293T cells,Increases Cell Adherence

# Reference: patent US20120022000A1, “USE OF A PEPTIDE IN THE TREATMENT OR PREVENTION OF METASTASIS” (UNIVERSITE DE LAUSANNE, priority 2009, published 2012)
